The values that follow are results of earlier work, collected in publication PMC4123439 (Bioorganic & medicinal chemistry, 2009).

The subject of this data set is Tdp1. To be noted: at concentrations of up to 1 mM.

Consider `COS(=O)(=O)c1ccc(C)cc1` [methyl p-toluene sulfonate], for which the Tdp1 inhibitory activity entry is “inactive”.
